Data on six molecules can be found in patent US20140288188A1, “Process for Stabilizing Bacterial Content of Aqueous Ground Natural Calcium Carbonate and/or Precipitated Calcium Carbonate and/or Dolomite and/or Surface-Reacted Calcium Carbonate-Comprising Mineral Preparations” (priority 2011, published 2014).

Like-named read-outs stand apart in the source and are kept apart here.

Assay [1] deals with rGDA/IT bacteria culture (GDA/CIT/MIT-resistant). The assay is classed as cell-based, Pseudomonas. The conditions noted are these: no BM1, GNCCS, one inoculation. The method, then: (§1) All quoted bacterial counts (Total Viable Count (TVC) values are in cfu/ml) in the Tables herebelow are determined after 48 hours following plate-out and in accordance with the counting method described in “Bestimmung von aeroben mesophilen Keimen”, Schweizerisches Lebensmittelbuch, chapter 56, section 7.01, edition of 1985, revised version of 1988.
BM1 and ethylene diamine (hereafter “EDA”) were introduced into 50 g samples of each of the slurries indicated in Table 1 in the listed amounts (quoted in ppm based on the weight of the aqueous phase in the slurry). The samples were then stored at 30° C. for 72 hours. References were prepared according to the same protocol but in absence of EDA and in absence of EDA and BM1.
The slurry samples were then inoculated with 1 ml of a mixture of rGDA/IT bacteria culture. Each of the samples was incubated at 30° C. for 24 hours. Thereafter, a 1:10 dilution in phosphate buffered saline (PBS) was plated on plate count agar (PCA). These plates were incubated at 30° C. and analysed after 48 hours.
The biocide-resistant calcium carbonate slurry culture rGDA/IT is GDA/CIT/MIT-resistant and was obtained from product storage tanks located at white mineral dispersion (WMD) manufacturing plants that used the related biocide to preserve the products. […]
BM1 and a diamine selected from 1,3-bis(aminomethyl)cyclohexane (hereinafter “AMC”), 1,3-bis(aminomethyl)benzene (hereinafter “AMB”), 1,7-diaminoheptane (hereinafter “DAH”), and 1,8-diamionoocatane (hereinafter “DAO”) were introduced into 50 g samples of each of the slurries indicated in Table 4 in the listed amounts (quoted in ppm based on the weight of the aqueous phase in the slurry). The samples were then stored at 30° C. for 72 hours. References were prepared according to the same protocol but in absence of the respective diamine used and in the absence of the respective diamine and BM1. […]

Assay [2] concerns rOPP bacteria culture (OPP-resistant). Briefly: Biocidal activity in ground natural calcium carbonate slurry (GNCCS), Total Viable Count after inoculation with rOPP culture. Format: cell-based, Pseudomonas putida and Pseudomonas stutzeri. The conditions noted are these: one inoculation. On the procedure: as §1
OPP, in the form of an aqueous solution having a concentration of 45%, and one of AMC, AMB, DAH, and DAO were introduced into 50 g samples of each of the slurries indicated in Table 6 in the listed amounts (quoted in ppm active content based on the weight of the aqueous phase in the slurry). References were prepared according to the same protocol but in absence of any one of AMC, AMB, DAH, and DAO. A reference was prepared according to the same protocol but in absence of AMC, AMB, DAH, and DAO and in absence of any biocide.
The slurry samples were then inoculated with 1 ml of a mixture of Pseudomonas species containing predominantly Pseudomonas putida and Pseudomonas stutzeri that are resistant to OPP. Each of the samples was incubated at 30° C. for 72 hours. Thereafter, a 1:10 dilution in phosphate buffered saline (PBS) was plated on plate count agar (PCA). These plates were incubated at 30° C. and analysed after […]. […]

With `NCCN` [EDA, ethylene diamine], the TVC in assay [1] (EDA 1050 ppm on aqueous phase alone) was 1 × 10^6 cfu/ml.
`NCCCCCCCN` [DAH, 1,7-diaminoheptane]: in assay [1] (diamine 750 ppm alone), the TVC is on record as 1 × 10^6 cfu/ml.
For the molecule `Oc1ccccc1-c1ccccc1` [OPP, orthophenylphenol, reference compound], the TVC in assay [2] (OPP 250 ppm alone) was 1 × 10^6 cfu/ml.
For `NCC1CCCC(CN)C1` (stereo not shown) [AMC, 1,3-bis(aminomethyl)cyclohexane], the TVC in assay [1] (diamine 750 ppm alone) was 1 × 10^6 cfu/ml.
On to `NCc1cccc(CN)c1` [AMB, 1,3-bis(aminomethyl)benzene], for which the TVC in assay [1] (diamine 750 ppm alone) was 1 × 10^6 cfu/ml.
As for `NCCCCCCCCN` [DAO, 1,8-diamionoocatane], the TVC in assay [1] (diamine 750 ppm alone) is listed as 1 × 10^6 cfu/ml; in assay [2] (diamine 750 ppm alone, no OPP), 1 × 10^6 cfu/ml.
